Measurements published in US11197873B2, “Azolium salts for treatment of non-muscle invasive bladder cancer” (The University of Akron, priority 2019, dated 2021).

Key:
Assay type in all cases: cell-based, human
[1] = tested on: bladder cancer cell lines; test: CellTiter-Glo assay, growth inhibition at 1 h exposure
Description: (§1) Select bladder cancer cell lines were seeded at 10,000 cells/well in black-walled 96 well plates and incubated for 24 h. Cells were treated with compound in their respective media (as recommended by ATCC) at concentrations of 500 to 7.8 μM dissolved in two-fold dilution increments or vehicle for 1 h, followed by replacement of treatment media with normal growth media. After 24 h, plates with cells were incubated at room temperature for 30 min, followed by the addition of 20 μL of CellTiter-Glo® luminescent cell viability assay reagent (Promega) and mixing. After 2 min of incubation at room temperature, luminescence for each plate was measured using IVIS. Relative survival for each treatment group was calculated using vehicle control. All treatments were performed in quadruplicate.

RT112 cell line = test: Relative survival at varying concentration and exposure time, 24 h recovery; conditions: 5 min exposure time
Description: (§2) FIG. 4 provides the relative survival of RT4 cells in part A and RT112 cells in part B that were treated with varying concentrations of III for different exposure times followed by a 24 h recovery.
as §1, with “Cells were treated with compound in their respective media (as recommended by ATCC) at concentrations of 500 to 7.8 μM dissolved in two-fold dilution increments or vehicle for 1 h, followed by replacement of treatment media with normal growth media.” left out

RT4 cell line = test: as above; conditions: 5 min exposure time
Description: as §2, §1

With CN1/C(=C/C=C/c2n(Cc3ccc4ccccc4c3)c(Cl)c(Cl)[n+]2Cc2ccc3ccccc3c2)Oc2ccccc21.[Cl-] [III, 4,5-dichloro-2-((1E,3Z)-3-(3-methylbenzoxazol-2(3H)-ylidene)prop-1-en-1-yl)-1,3-bis(naphthalen-2-ylmethyl)-1H-imidazolium chloride] the “GI50 compared with both triphenylphosphonium compounds” value [1] was “extremely lower GI50 concentrations”, the “concentration that inhibits cell survival” value (RT112 cell line) was 40 µM and the “concentration that inhibits cell survival” value (RT4 cell line) was 10 µM.
